Laboratory results as given in the supplement of paper PMC10307832.

How the values were obtained:
Experiment in all cases: relative viability (nuclei count vs DMSO), 5 days (fraction); higher = more cells survive
[1] = compound: C[C@@]1(C(=O)Nc2ccc(F)nc2)CCCN1c1nc(Nc2cc(C3CC3)n[nH]2)c2cccn2n1 + Nc1ncn([C@H]2C[C@H](O)[C@@H](CO)O2)c(=O)n1 [Decitabine] (partner 2 µM)
Procedure, shortened: (§1)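 Five library-drug doses in √10 steps were combined with a fixed anchor-drug dose, or a single drug was given alone, by pin tool to lung cancer cell lines in 1536-well plates the day after seeding. Nuclei were stained and counted after 5 days. Relative viability is the nuclei count in treated wells over that in vehicle wells, taken as the median of duplicate plates.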

[2] = compound: C[C@@]1(C(=O)Nc2ccc(F)nc2)CCCN1c1nc(Nc2cc(C3CC3)n[nH]2)c2cccn2n1 + CC(=O)c1c(C)c2cnc(Nc3ccc(N4CCNCC4)cn3)nc2n(C2CCCC2)c1=O [Palbociclib] (partner 0.5 µM)
Procedure, shortened: as §1

[3] = compound: CC1(C)CNc2cc(NC(=O)c3cccnc3NCc3ccncc3)ccc21 [Motesanib] + C[C@]1(O)C[C@@H](c2nc(-c3ccc4ccc(-c5ccccc5)nc4c3)c3c(N)nccn32)C1 [Linsitinib] (partner 1 µM)
Procedure, shortened: as §1

[4] = compound: CC1(C)CNc2cc(NC(=O)c3cccnc3NCc3ccncc3)ccc21 [Motesanib] + C[C@@H](Oc1cc(-c2cnn(C3CCNCC3)c2)cnc1N)c1c(Cl)ccc(F)c1Cl [Crizotinib] (partner 1 µM)
Procedure, shortened: as §1

Cell Line: NCI-H3122
- relative viability ([1]; first compound 0.04 µM): 0.361
- relative viability ([1]; first compound 0.1265 µM): 0.337
- relative viability ([1]; first compound 0.4 µM): 0.349
- relative viability ([1]; first compound 1.265 µM): 0.386
- relative viability ([2]; first compound 0.04 µM): 0.158
- relative viability ([2]; first compound 0.1265 µM): 0.183
- relative viability ([2]; first compound 0.4 µM): 0.171
- relative viability ([2]; first compound 1.265 µM): 0.185
- relative viability ([3]; first compound 0.01 µM): 0.986
- relative viability ([3]; first compound 0.03162 µM): 0.961
- relative viability ([3]; first compound 0.1 µM): 0.991
- relative viability ([3]; first compound 0.3162 µM): 1.01
- relative viability ([3]; first compound 1 µM): 0.965
- relative viability ([4]; first compound 0.01 µM): 0.253
- relative viability ([4]; first compound 0.03162 µM): 0.27
- relative viability ([4]; first compound 0.1 µM): 0.285
- relative viability ([4]; first compound 0.3162 µM): 0.295
- relative viability ([4]; first compound 1 µM): 0.267

Cell Line: PC-3 [JPC-3]
- relative viability ([1]; first compound 0.04 µM): 0.786
- relative viability ([1]; first compound 0.1265 µM): 0.608
- relative viability ([1]; first compound 0.4 µM): 0.804
- relative viability ([1]; first compound 1.265 µM): 0.766
- relative viability ([2]; first compound 0.04 µM): 0.557
- relative viability ([2]; first compound 0.1265 µM): 0.467
- relative viability ([2]; first compound 0.4 µM): 0.516
- relative viability ([2]; first compound 1.265 µM): 0.549
- relative viability ([3]; first compound 0.01 µM): 1.05
- relative viability ([3]; first compound 0.03162 µM): 0.969
- relative viability ([3]; first compound 0.1 µM): 0.946
- relative viability ([3]; first compound 0.3162 µM): 1.04
- relative viability ([3]; first compound 1 µM): 0.944
- relative viability ([4]; first compound 0.01 µM): 0.997
- relative viability ([4]; first compound 0.03162 µM): 1.03
- relative viability ([4]; first compound 0.1 µM): 1.02
- relative viability ([4]; first compound 0.3162 µM): 1.01
- relative viability ([4]; first compound 1 µM): 1.01

Cell Line: PC-14
- relative viability ([1]; first compound 0.04 µM): 0.209
- relative viability ([1]; first compound 0.1265 µM): 0.27
- relative viability ([1]; first compound 0.4 µM): 0.177
- relative viability ([1]; first compound 1.265 µM): 0.172
- relative viability ([2]; first compound 0.04 µM): 0.552
- relative viability ([2]; first compound 0.1265 µM): 0.469
- relative viability ([2]; first compound 0.4 µM): 0.49
- relative viability ([2]; first compound 1.265 µM): 0.491
- relative viability ([3]; first compound 0.01 µM): 1.01
- relative viability ([3]; first compound 0.03162 µM): 0.97
- relative viability ([3]; first compound 0.1 µM): 1.02
- relative viability ([3]; first compound 0.3162 µM): 0.997
- relative viability ([3]; first compound 1 µM): 0.97
- relative viability ([4]; first compound 0.01 µM): 0.944
- relative viability ([4]; first compound 0.03162 µM): 0.965
- relative viability ([4]; first compound 0.1 µM): 0.898
- relative viability ([4]; first compound 0.3162 µM): 0.883
- relative viability ([4]; first compound 1 µM): 0.969

Cell Line: RERF-LC-KJ
- relative viability ([1]; first compound 0.04 µM): 0.662
- relative viability ([1]; first compound 0.1265 µM): 0.629
- relative viability ([1]; first compound 0.4 µM): 0.468
- relative viability ([1]; first compound 1.265 µM): 0.467
- relative viability ([2]; first compound 0.04 µM): 1.03
- relative viability ([2]; first compound 0.1265 µM): 0.946
- relative viability ([2]; first compound 0.4 µM): 0.943
- relative viability ([2]; first compound 1.265 µM): 0.845
- relative viability ([3]; first compound 0.01 µM): 0.864
- relative viability ([3]; first compound 0.03162 µM): 0.926
- relative viability ([3]; first compound 0.1 µM): 0.857
- relative viability ([3]; first compound 0.3162 µM): 0.919
- relative viability ([3]; first compound 1 µM): 0.844
- relative viability ([4]; first compound 0.01 µM): 0.87
- relative viability ([4]; first compound 0.03162 µM): 0.762
- relative viability ([4]; first compound 0.1 µM): 0.878
- relative viability ([4]; first compound 0.3162 µM): 0.768
- relative viability ([4]; first compound 1 µM): 0.879

Cell Line: SK-LU-1
- relative viability ([1]; first compound 0.04 µM): 0.672
- relative viability ([1]; first compound 0.1265 µM): 0.543
- relative viability ([1]; first compound 0.4 µM): 0.489
- relative viability ([1]; first compound 1.265 µM): 0.524
- relative viability ([2]; first compound 0.04 µM): 0.391
- relative viability ([2]; first compound 0.1265 µM): 0.358
- relative viability ([2]; first compound 0.4 µM): 0.341
- relative viability ([2]; first compound 1.265 µM): 0.37
- relative viability ([3]; first compound 0.01 µM): 1.14
- relative viability ([3]; first compound 0.03162 µM): 1.01
- relative viability ([3]; first compound 0.1 µM): 1.2
- relative viability ([3]; first compound 0.3162 µM): 1.1
- relative viability ([3]; first compound 1 µM): 1.32
- relative viability ([4]; first compound 0.01 µM): 0.961
- relative viability ([4]; first compound 0.03162 µM): 0.935
- relative viability ([4]; first compound 0.1 µM): 0.826
- relative viability ([4]; first compound 0.3162 µM): 0.897
- relative viability ([4]; first compound 1 µM): 0.988

Cell Line: SK-MES-1
- relative viability ([1]; first compound 0.04 µM): 0.333
- relative viability ([1]; first compound 0.1265 µM): 0.424
- relative viability ([1]; first compound 0.4 µM): 0.333
- relative viability ([1]; first compound 1.265 µM): 0.344
- relative viability ([2]; first compound 0.04 µM): 0.34
- relative viability ([2]; first compound 0.1265 µM): 0.355
- relative viability ([2]; first compound 0.4 µM): 0.293
- relative viability ([2]; first compound 1.265 µM): 0.282
- relative viability ([3]; first compound 0.01 µM): 1.06
- relative viability ([3]; first compound 0.03162 µM): 1.09
- relative viability ([3]; first compound 0.1 µM): 1.1
- relative viability ([3]; first compound 0.3162 µM): 1.08
- relative viability ([3]; first compound 1 µM): 1.08
- relative viability ([4]; first compound 0.01 µM): 0.983
- relative viability ([4]; first compound 0.03162 µM): 0.986
- relative viability ([4]; first compound 0.1 µM): 1.01
- relative viability ([4]; first compound 0.3162 µM): 1.05
- relative viability ([4]; first compound 1 µM): 0.977

Cell Line: SW 1573
- relative viability ([1]; first compound 0.04 µM): 0.465
- relative viability ([1]; first compound 0.1265 µM): 0.413
- relative viability ([1]; first compound 0.4 µM): 0.429
- relative viability ([1]; first compound 1.265 µM): 0.177
- relative viability ([2]; first compound 0.04 µM): 0.342
- relative viability ([2]; first compound 0.1265 µM): 0.262
- relative viability ([2]; first compound 0.4 µM): 0.294
- relative viability ([2]; first compound 1.265 µM): 0.304
- relative viability ([3]; first compound 0.01 µM): 0.815
- relative viability ([3]; first compound 0.03162 µM): 0.825
- relative viability ([3]; first compound 0.1 µM): 0.65
- relative viability ([3]; first compound 0.3162 µM): 0.773
- relative viability ([3]; first compound 1 µM): 0.949
- relative viability ([4]; first compound 0.01 µM): 0.686
- relative viability ([4]; first compound 0.03162 µM): 0.887
- relative viability ([4]; first compound 0.1 µM): 0.913
- relative viability ([4]; first compound 0.3162 µM): 0.746
- relative viability ([4]; first compound 1 µM): 0.973
